The source of these data is patent US11753403B2, “EIF4E inhibitors and uses thereof” (PIC Therapeutics, Inc., priority 2020, dated 2023).

Chain of Human eIF4E (aa 28-217) / biotin labeled 4G2 peptide (P06730 28-217): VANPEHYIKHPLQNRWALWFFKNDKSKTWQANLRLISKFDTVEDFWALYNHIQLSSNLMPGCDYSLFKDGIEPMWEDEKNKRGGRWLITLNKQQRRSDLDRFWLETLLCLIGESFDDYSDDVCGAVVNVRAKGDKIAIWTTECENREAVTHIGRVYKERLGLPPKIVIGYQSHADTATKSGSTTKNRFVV

The target of the assay is Human eIF4E (aa 28-217) / biotin labeled 4G2 peptide (Homo sapiens (Human), UniProt P06730). Put plainly: Human eIF4E/4G2 binding assay (TR-FRET). The conditions noted are these: Human eIF4E/4G2 TR-FRET binding assay; head says IC50, legend says EC50. Here is the method:
Example 5. Compound Testing in Human eIF4E/4G2 Binding Assay
Human eIF4E (aa 28-217) with a C-terminal His-tag was expressed in E. coli in inclusion bodies. The protein was solubilized with 8 M urea and purified under denaturing conditions using nickel-charged HisTrap HP columns (GE Healthcare). The purified protein was then refolded by diluting in 20 mM Hepes pH 7.0, 0.5 M NaCl, 1 mM DTT, 1 mM EDTA, 0.5 M arginine plus 6 M urea, and then dialyzing overnight into the same buffer without the urea. The protein was further dialyzed into 20 mM Hepes, pH 6.5, 50 mM NaCl, 1 mM EDTA, 1 mM DTT, and concentrated using Hitrap SP sepharose FF columns (GE Healthcare). The concentrated protein was dialyzed into 20 mM Hepes, pH 7.0, 0.5M NaCl, 5 mM DTT and 10% glycerol, and stored at −80° C. until use.
Test compounds (3.43 mM stock in DMSO) were diluted 2-fold in series in DMSO (10 concentration points). Compound solutions (1.2 μl/well) were added into black 384-well polypropylene microplates (Matrix, Thermal Scientific). Twenty-two microliters per well of Assay Buffer (50 mM NaPi, pH 6.5, 50 mM KCl, 1 mM DTT and 0.5 mg/ml gamma globulin) and eight microliters per well of 82.5 nM purified eIF4E in Assay Buffer were added. The samples were incubated at room temperature (20-23° C.) for 4 hours. Biotin labeled 4G2 peptide (Ac-Lys-Gln-Tyr-Asp-Arg-Glu-Phe-Leu-Leu-Asp-Phe-Gln-Phe-Met-Pro-Lys(Aha-Bio)-NH2, 1.75 μM stock in DMSO) was diluted to 0.14 μM in Assay Buffer (without DTT) and 5 μl/well was added. The samples were incubated at room temperature for 20 min. Five microliters per well of 6.4 nM Eu-streptavidin (Eu-SA, Perkin Elmer) and 80 nM Allophycocyanin (APC)-anti His antibody (Columbia Biosciences) in Assay Buffer (without DTT) were then added and the samples were incubated at room temperature for 20 min.
Assay signals were monitored by reading excitation at 340 nm and emission fluorescence at 615 nm and 665 nm on an Envision reader (Perkin Elmer). Normalized TR-FRET (time-resolved fluorescence resonance energy transfer) assay signal (Rn) was calculated by the formula: Rn=[(A−Ba−C×D)/(D−Bd)]×(Dc−Bd) Where A is the fluorescence intensity of the sample at 665 nm, • D is the fluorescence intensity of the sample at 615 nm, • Ba and Bd are plate backgrounds at 665 nm and 615 nm, respectively, • Dc is the fluorescence intensity of 0.78 nM Eu-SA in the assay buffer at 615 nm The cross-talk factor (C) is determined by the following formula: C=(Ac−Ba)/(Dc−Bd) Where Ac is the fluorescence intensity of 0.78 nM Eu-SA in the assay buffer at 665 nm.
IC50 values were calculated using xLFit program (IDBS). Table 2 below lists EC50 of some compounds, wherein A represents EC50≤1 uM; B represents 1 uM<EC50≤10 uM; and C represents EC50>10 uM.
For the compound `COc1cccc(-c2nc(NCC(CCc3ccccc3)C(=O)O)sc2C(C)C)c1` (centres unmarked) [I-33], the IC50 (as a rule, the concentration at which inhibition is half-maximal) was 1000 to 10000 nM.

The compound `CNC(=O)CCN(Cc1ccccc1)c1nc(-c2ccc(Cl)c(Cl)c2)c(CC(C)C)s1` [I-200, 3-(benzyl(4-(3,4-dichlorophenyl)-5-isobutylthiazol-2-yl)amino)-N-methylpropanamide] came in with an IC50 greater than 10000 nM.

`COc1cccc(-c2nc(NCC(Cc3cccc4cc[nH]c34)C(=O)O)sc2C(C)C)c1` (centres unmarked) [I-34] yielded an IC50 of 1000 to 10000 nM.

`CC(C)Cc1sc(NCC(CCc2ccccc2)C(=O)O)nc1-c1ccc(Cl)c(Cl)c1` (centres unmarked) [I-23] returned an IC50 of no more than 1000 nM.

Consider `CC(C)Cc1sc(N(CCCCN)CCC(=O)O)nc1-c1ccc(Cl)c(Cl)c1` [I-146, 3-((4-aminobutyl)(4-(3,4-dichlorophenyl)-5-isobutylthiazol-2-yl)amino)propanoic acid], for which the IC50 is greater than 10000 nM.

`CC(C)Cc1sc(N(Cc2ccccc2)C(=O)CC(=O)O)nc1-c1ccc(Cl)c(Cl)c1` [I-143, 3-(benzyl(4-(3,4-dichlorophenyl)-5-isobutylthiazol-2-yl)amino)-3-oxopropanoic acid]: the IC50 was greater than 10000 nM.

In the case of `CC(C)Cc1sc(N(CCO)CCC(=O)O)nc1-c1ccc(Cl)c(Cl)c1` [I-66], the IC50 lay in the range of 1000 to 10000 nM.

Take `COc1cc(CC(CNc2nc(-c3ccc(Cl)c(Cl)c3)c(CC(C)C)s2)C(=O)O)ccn1` (centres unmarked) [I-165]: the IC50 lay within 1000 to 10000 nM.

In the case of `CC(C)c1sc(NCC(Cc2cccc3[nH]ccc23)C(=O)O)nc1-c1ccc(Cl)cc1` (centres unmarked) [I-44], the IC50 lay in the range of 1000 to 10000 nM.

The compound `CC(C)Cc1sc(N(CCC(=O)NCCN)Cc2ccccc2)nc1-c1ccc(Cl)c(Cl)c1` [I-131, N-(2-aminoethyl)-3-(benzyl(4-(3,4-dichlorophenyl)-5-isobutylthiazol-2-yl)amino)propanamide] gave a half-maximal inhibitory concentration (IC50) of 1000 to 10000 nM.

Take `O=C(O)c1sc(C2CCCC2)cc1Nc1nc(Cc2ccccc2)c(-c2ccccc2)s1` [I-310]: the half-inhibitory concentration (IC50) is no more than 1000 nM.

`CC(C)Cc1sc(Nc2cccc(C(=O)O)n2)nc1-c1ccc(Cl)c(Cl)c1` [I-219] gave a half-inhibitory concentration (IC50) of 1000 to 10000 nM.

`CNC(=O)c1cccc(CC(CNc2nc(-c3ccc(Cl)c(Cl)c3)c(CC(C)C)s2)C(=O)O)c1` (centres unmarked) [I-169] gave an IC50 of 1000 to 10000 nM.

For the compound `CC(C)c1sc(NCC(Cc2cccc3c2OCO3)C(=O)O)nc1-c1ccc(Cl)c(Cl)c1` (centres unmarked) [I-2], the IC50 was no more than 1000 nM.

Compound `CC(C)Cc1sc(N(CCCO)CCC(=O)O)nc1-c1ccc(Cl)c(Cl)c1` [I-70] had a 50% inhibitory concentration (IC50) of 1000 to 10000 nM.

`CC(C)Cc1sc(N(CCC(=O)O)CC2CC2)nc1-c1ccc(Cl)c(Cl)c1` [I-105] came in with an IC50 of 1000 to 10000 nM.

Take `CC(C)c1sc(Nc2ncc(-c3cccs3)cc2C(=O)O)nc1-c1ccc(Cl)c(C(F)(F)F)c1` [I-263]: the IC50 was no more than 1000 nM.

Compound `CC(C)Cc1sc(N(CCS(=O)(=O)NC(=O)CN)Cc2ccccc2)nc1-c1ccc(Cl)c(Cl)c1` [I-187, 2-amino-N-(2-(benzyl(4-(3,4-dichlorophenyl)-5-isobutylthiazol-2-yl)amino)ethylsulfonyl)acetamide] yielded an IC50 greater than 10000 nM.

Regarding `COCCOc1ccc(-c2nc(Nc3ncc(-c4cccs4)cc3C(=O)O)sc2CC(C)C)cc1Cl` [I-327], the IC50 is no more than 1000 nM.

`CC(C)Cc1sc(N2CCN(C(=O)c3ccccc3)C(C(=O)O)C2)nc1-c1ccc(Cl)c(Cl)c1` (centres unmarked) [I-246, 1-benzoyl-4-(4-(3,4-dichlorophenyl)-5-isobutylthiazol-2-yl)piperazine-2-carboxylic acid]: the IC50 lay within 1000 to 10000 nM.

Compound `COc1ccc(CC(CNc2nc(-c3ccc(Cl)c(Cl)c3)c(CC(C)C)s2)C(=O)O)cn1` (centres unmarked) [I-163] returned an IC50 of 1000 to 10000 nM.

`CC(C)Cc1sc(Nc2ccc(N3CCOCC3)c(C(=O)O)c2)nc1-c1ccc(Cl)c(Cl)c1` [I-211] displayed an IC50 greater than 10000 nM.

In turn, `CC(C)Cc1sc(N(CCC(=O)O)Cc2ccccc2)nc1-c1ccc(Cl)cc1` [I-93] yielded an IC50 of 1000 to 10000 nM.

Take `COCCN(CCC(=O)O)c1nc(-c2ccc(Cl)c(Cl)c2)c(CC(C)C)s1` [I-67]: the IC50 was 1000 to 10000 nM.

On to `CC(C)Cc1sc(N(CCC(N)=O)CCC(=O)O)nc1-c1ccc(Cl)c(Cl)c1` [I-61], for which the half-maximal inhibitory concentration (IC50) is greater than 10000 nM.

Compound `CC(C)Cc1sc(N(CCCCN(C)C)CCC(=O)O)nc1-c1ccc(Cl)c(Cl)c1` [I-147, 3-((4-(3,4-dichlorophenyl)-5-isobutylthiazol-2-yl)(4-(dimethylamino)butyl)amino) propanoic acid] gave an IC50 of 1000 to 10000 nM.

`CC(C)Cc1sc(NCC(Cc2cccc3[nH]ccc23)C(=O)O)nc1-c1ccc(Cl)c(Cl)c1` (centres unmarked) [I-25] returned an IC50 of no more than 1000 nM.

The compound `Cc1c(-c2ccccc2)sc(C(=O)O)c1Nc1nc(-c2ccc(Cl)c(Cl)c2)c(CC(C)C)s1` [I-275] displayed an IC50 of no more than 1000 nM.

For `CC(C)c1sc(Nc2ncc(C(F)(F)F)cc2C(=O)O)nc1-c1ccc(Cl)cc1Cl` [I-323, 2-(4-(2,4-dichlorophenyl)-5-isopropylthiazol-2-ylamino)-5-(trifluoromethyl)nicotinic acid], the IC50 was no more than 1000 nM.

Consider `CC(C)Cc1sc(N(CCc2nnn[nH]2)Cc2ccccc2)nc1-c1ccc(Cl)c(Cl)c1` [I-100], for which the IC50 was no more than 1000 nM.

Compound `CC(C)Cc1sc(Nc2ccnc(C(=O)O)c2)nc1-c1ccc(Cl)c(Cl)c1` [I-220] displayed an IC50 of 1000 to 10000 nM.

With `CC(C)Cc1sc(N(CCC(N)=O)Cc2ccccc2)nc1-c1ccc(Cl)c(Cl)c1` [I-189], the IC50 was greater than 10000 nM.

Compound `CC(C)c1sc(Nc2ncc(-c3cccc(F)c3)cc2C(=O)O)nc1-c1ccc(Cl)c(Cl)c1` [I-266] returned an IC50 of no more than 1000 nM.

As for `CC(C)Cc1sc(Nc2ccsc2C(=O)NCCN)nc1-c1ccc(Cl)c(Cl)c1` [I-276, N-(2-aminoethyl)-3-(4-(3,4-dichlorophenyl)-5-isobutylthiazol-2-ylamino)thiophene-2-carboxamide], the IC50 lay in the range of 1000 to 10000 nM.

In the case of `COc1ccccc1CN(CCC(=O)O)c1nc(-c2ccc(Cl)c(Cl)c2)c(CC(C)C)s1` [I-49], the IC50 was no more than 1000 nM.

The compound `CC(C)Cc1sc(NCC(Cc2cnc(O)nc2)C(=O)O)nc1-c1ccc(Cl)c(Cl)c1` (centres unmarked) [I-159, 3-(4-(3,4-dichlorophenyl)-5-isobutylthiazol-2-ylamino)-2-((2-hydroxypyrimidin-5-yl)methyl)propanoic acid] registered an IC50 of 1000 to 10000 nM.

Consider `COc1ccccc1CC(CNc1nc(-c2ccc(Cl)cc2)c(C(C)C)s1)C(=O)O` (centres unmarked) [I-40], for which the IC50 fell in the range of 1000 to 10000 nM.

Regarding `CC(C)Cc1sc(N(CCC(=O)O)Cc2cccc(F)c2)nc1-c1ccc(Cl)c(Cl)c1` [I-51], the IC50 is no more than 1000 nM.

Regarding `CC(C)c1sc(Nc2ncc(-c3cccs3)cc2C(=O)O)nc1-c1ccc(Cl)c(Cl)c1` [I-260], the IC50 was no more than 1000 nM.

For the compound `CC(C)c1sc(Nc2ncccc2C(=O)O)nc1-c1ccc(Cl)c(C(F)(F)F)c1` [I-261], the 50% inhibitory concentration (IC50) is no more than 1000 nM.

Take `CC(C)Cc1sc(Nc2ccccc2C#N)nc1-c1ccc(Cl)c(Cl)c1` [I-286]: the IC50 is greater than 10000 nM.

The compound `CC(C)c1sc(Nc2cc(-c3ccccc3)sc2C(=O)O)nc1-c1ccc(Cl)c(Cl)c1` [I-278] showed an IC50 of no more than 1000 nM.

`CC(C)Cc1sc(NCC(Cc2ccc(O)nc2)C(=O)O)nc1-c1ccc(Cl)c(Cl)c1` (centres unmarked) [I-162] gave a concentration for half-maximal inhibition (IC50) of 1000 to 10000 nM.

The compound `O=C(O)c1sc(NCC(Cc2ccccc2)C(=O)O)nc1-c1ccc(Cl)c(Cl)c1` (centres unmarked) [I-183, 2-(2-carboxy-3-phenylpropylamino)-4-(3,4-dichlorophenyl)thiazole-5-carboxylic acid] registered an IC50 greater than 10000 nM.

In turn, `COc1ccc(-c2nc(Nc3ncc(C(F)(F)F)cc3C(=O)O)sc2CC(C)C)cc1Cl` [I-325] returned an IC50 of no more than 1000 nM.

`CC(C)Cc1sc(Nc2cc(-c3ccccc3)sc2C(=O)O)nc1-c1ccc(Cl)c(Cl)c1` [I-270] registered a concentration for half-maximal inhibition (IC50) of no more than 1000 nM.

`CC(C)Cc1sc(Nc2ccncc2C(=O)O)nc1-c1ccc(Cl)c(Cl)c1` [I-254] came in with an IC50 of 1000 to 10000 nM.

In turn, `CC(C)Cc1sc(Nc2ncc(C(F)(F)F)cc2C(=O)O)nc1-c1ccc2ccccc2c1` [I-321] returned an IC50 of no more than 1000 nM.

The compound `CC(C)Cc1sc(N(CCc2ccccc2)CC(=O)O)nc1-c1ccc(Cl)c(Cl)c1` [I-60] returned a half-maximal inhibitory concentration (IC50) of no more than 1000 nM.

Consider `COc1cccc(-c2cnc(Nc3nc(-c4ccc(Cl)c(Cl)c4)c(C(C)C)s3)c(C(=O)O)c2)c1` [I-267], for which the IC50 was no more than 1000 nM.
